{"source": "patent US12655468B2", "about": "“Genetic predictors of a response to treatment with CRHR1 antagonists” (HMNC Holding GmbH, priority 2015, dated 2026)", "origin": "cited, not measured here", "tested_on": "mice overexpressing CRH in the forebrain"}
{"smiles": "COCC(COC)Nc1nc(C)nc2c(-c3ccc(Cl)cc3Cl)c(C)nn12", "note": "[DMP696]", "values": [{"measurement": "effect on increased REM sleep", "value": "could reverse the REM enhancement"}]}
